Source: patent publication US20240246942A1, “KINASE INHIBITORS FOR THE TREATMENT OF NEURODEGENERATIVE DISEASES” (priority 2020, published 2024)
Read-outs that look alike come from different tables or passages of the source.

Key:
Assay in all cases: biochemical
[1] = molecular target: T1, panel of 374 wild-type kinases (Homo sapiens, UniProt Q5VT25); settings: read-out: % Enzyme Activity (relative to DMSO controls), MRCKa/CDC42BPA
T1 construct: purchased Reaction Biology Corporation

[2] = molecular target: T2, panel of 374 wild-type kinases (Homo sapiens, UniProt P28482); settings: read-out: % Enzyme Activity (relative to DMSO controls), ERK2/MAPK1
T2 construct: purchased Reaction Biology Corporation
T2 sequence (P28482 whole entry): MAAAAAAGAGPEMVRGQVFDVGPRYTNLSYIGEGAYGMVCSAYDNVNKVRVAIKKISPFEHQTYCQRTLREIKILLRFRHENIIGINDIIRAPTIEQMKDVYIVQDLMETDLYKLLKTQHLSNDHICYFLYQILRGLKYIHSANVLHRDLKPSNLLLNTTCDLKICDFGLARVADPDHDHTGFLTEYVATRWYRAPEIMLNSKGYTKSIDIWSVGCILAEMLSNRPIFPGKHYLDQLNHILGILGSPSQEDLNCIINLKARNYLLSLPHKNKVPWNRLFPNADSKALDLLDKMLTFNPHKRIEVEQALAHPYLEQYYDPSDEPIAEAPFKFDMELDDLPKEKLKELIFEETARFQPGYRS

[3] = molecular target: T3, panel of 374 wild-type kinases (Homo sapiens, UniProt P07333); settings: read-out: % Enzyme Activity (relative to DMSO controls), FMS
T3 construct: purchased Reaction Biology Corporation

[4] = molecular target: T4, panel of 374 wild-type kinases (Homo sapiens, UniProt P20794); settings: read-out: % Enzyme Activity (relative to DMSO controls), MAK
T4 construct: purchased Reaction Biology Corporation
T4 sequence (P20794 1-623): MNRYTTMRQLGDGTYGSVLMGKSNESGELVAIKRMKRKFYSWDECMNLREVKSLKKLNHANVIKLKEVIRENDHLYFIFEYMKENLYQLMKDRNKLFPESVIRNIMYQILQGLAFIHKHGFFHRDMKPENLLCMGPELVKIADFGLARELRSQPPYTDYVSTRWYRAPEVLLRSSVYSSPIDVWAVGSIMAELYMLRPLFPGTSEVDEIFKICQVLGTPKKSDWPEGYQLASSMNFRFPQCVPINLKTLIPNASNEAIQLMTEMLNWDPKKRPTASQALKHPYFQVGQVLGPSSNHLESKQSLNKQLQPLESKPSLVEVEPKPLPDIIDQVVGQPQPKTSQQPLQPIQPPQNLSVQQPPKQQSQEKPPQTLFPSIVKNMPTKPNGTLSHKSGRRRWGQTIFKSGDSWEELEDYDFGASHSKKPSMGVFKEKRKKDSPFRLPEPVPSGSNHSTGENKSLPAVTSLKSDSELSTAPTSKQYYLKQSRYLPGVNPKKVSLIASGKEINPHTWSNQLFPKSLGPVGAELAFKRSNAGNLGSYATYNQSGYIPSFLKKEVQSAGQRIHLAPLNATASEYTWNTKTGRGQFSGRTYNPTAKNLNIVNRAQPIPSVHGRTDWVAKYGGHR

[5] = molecular target: T5, panel of 374 wild-type kinases (Homo sapiens, UniProt Q8N752); settings: read-out: % Enzyme Activity (relative to DMSO controls), CK1a1L
T5 construct: purchased Reaction Biology Corporation
T5 sequence (Q8N752 1-337): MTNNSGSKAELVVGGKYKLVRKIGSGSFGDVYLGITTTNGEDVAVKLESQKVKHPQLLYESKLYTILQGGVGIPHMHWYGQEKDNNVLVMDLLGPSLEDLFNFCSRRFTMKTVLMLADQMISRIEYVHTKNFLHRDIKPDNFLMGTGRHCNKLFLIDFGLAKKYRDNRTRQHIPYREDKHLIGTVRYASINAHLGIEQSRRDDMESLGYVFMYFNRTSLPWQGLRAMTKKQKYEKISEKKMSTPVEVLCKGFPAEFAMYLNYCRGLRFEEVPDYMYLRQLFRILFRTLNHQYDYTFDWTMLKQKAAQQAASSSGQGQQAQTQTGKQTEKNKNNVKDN

[6] = molecular target: T6, panel of 374 wild-type kinases (Homo sapiens, UniProt Q13188); settings: read-out: % Enzyme Activity (relative to DMSO controls), MST2/STK3
T6 construct: purchased Reaction Biology Corporation
T6 sequence (Q13188 1-491): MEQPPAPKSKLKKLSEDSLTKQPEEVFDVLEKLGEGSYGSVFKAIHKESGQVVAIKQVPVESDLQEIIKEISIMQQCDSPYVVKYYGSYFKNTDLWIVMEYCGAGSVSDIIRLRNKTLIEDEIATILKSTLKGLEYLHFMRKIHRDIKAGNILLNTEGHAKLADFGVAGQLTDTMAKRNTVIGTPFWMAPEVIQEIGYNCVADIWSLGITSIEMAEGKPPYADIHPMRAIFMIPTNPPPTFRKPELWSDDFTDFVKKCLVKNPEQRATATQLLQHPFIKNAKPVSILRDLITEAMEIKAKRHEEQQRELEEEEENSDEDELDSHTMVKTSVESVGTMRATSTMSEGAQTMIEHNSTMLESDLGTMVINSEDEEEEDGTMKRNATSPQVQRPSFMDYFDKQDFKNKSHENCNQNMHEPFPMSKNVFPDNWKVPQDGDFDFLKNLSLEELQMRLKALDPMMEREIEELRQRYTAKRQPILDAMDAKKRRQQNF

[7] = molecular target: T7, panel of 374 wild-type kinases (Homo sapiens, UniProt Q8N5S9); settings: read-out: % Enzyme Activity (relative to DMSO controls), CAMKK1
T7 construct: purchased Reaction Biology Corporation
T7 sequence (Q8N5S9 whole entry): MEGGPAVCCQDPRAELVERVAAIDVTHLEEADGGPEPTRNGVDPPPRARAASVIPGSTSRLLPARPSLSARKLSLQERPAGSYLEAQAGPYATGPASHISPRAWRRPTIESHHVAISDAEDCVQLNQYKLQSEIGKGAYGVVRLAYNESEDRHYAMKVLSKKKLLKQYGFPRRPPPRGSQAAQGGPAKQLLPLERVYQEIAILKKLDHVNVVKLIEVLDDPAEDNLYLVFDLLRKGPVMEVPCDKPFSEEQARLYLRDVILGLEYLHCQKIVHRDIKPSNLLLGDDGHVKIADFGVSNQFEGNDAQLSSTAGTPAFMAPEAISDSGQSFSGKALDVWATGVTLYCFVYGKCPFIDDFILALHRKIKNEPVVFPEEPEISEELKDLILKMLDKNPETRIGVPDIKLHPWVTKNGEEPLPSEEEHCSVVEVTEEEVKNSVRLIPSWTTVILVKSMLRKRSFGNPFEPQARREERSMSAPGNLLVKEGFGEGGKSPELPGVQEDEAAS

[8] = molecular target: T8, panel of 374 wild-type kinases (Homo sapiens, UniProt P00533); settings: read-out: % Enzyme Activity (relative to DMSO controls), EGFR
T8 construct: purchased Reaction Biology Corporation

[9] = molecular target: T9, panel of 374 wild-type kinases (Homo sapiens, UniProt P49336); settings: read-out: % Enzyme Activity (relative to DMSO controls), CDK8/cyclin C
T9 construct: purchased Reaction Biology Corporation

[10] = molecular target: T10, panel of 374 wild-type kinases (Homo sapiens, UniProt P23443); settings: read-out: % Enzyme Activity (relative to DMSO controls), kinase p70S6K/RPS6KB1
T10 construct: purchased Reaction Biology Corporation
T10 sequence (P23443 whole entry): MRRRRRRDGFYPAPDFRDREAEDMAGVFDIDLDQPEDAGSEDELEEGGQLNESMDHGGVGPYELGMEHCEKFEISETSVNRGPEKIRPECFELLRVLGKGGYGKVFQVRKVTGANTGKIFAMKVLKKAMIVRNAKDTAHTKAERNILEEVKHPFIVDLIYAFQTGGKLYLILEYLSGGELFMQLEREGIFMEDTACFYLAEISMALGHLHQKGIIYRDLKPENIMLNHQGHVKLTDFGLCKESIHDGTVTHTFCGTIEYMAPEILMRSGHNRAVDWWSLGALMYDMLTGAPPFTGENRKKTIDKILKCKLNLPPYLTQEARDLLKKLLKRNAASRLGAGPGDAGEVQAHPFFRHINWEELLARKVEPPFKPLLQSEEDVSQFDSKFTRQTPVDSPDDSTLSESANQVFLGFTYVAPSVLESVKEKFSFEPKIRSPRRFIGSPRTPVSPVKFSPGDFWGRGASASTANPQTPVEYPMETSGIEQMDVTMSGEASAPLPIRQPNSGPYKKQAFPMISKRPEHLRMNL

[11] = molecular target: T11, panel of 374 wild-type kinases (Homo sapiens, UniProt Q9H2X6); settings: read-out: % Enzyme Activity (relative to DMSO controls), HIPK2
T11 construct: purchased Reaction Biology Corporation
T11 sequence (Q9H2X6 whole entry): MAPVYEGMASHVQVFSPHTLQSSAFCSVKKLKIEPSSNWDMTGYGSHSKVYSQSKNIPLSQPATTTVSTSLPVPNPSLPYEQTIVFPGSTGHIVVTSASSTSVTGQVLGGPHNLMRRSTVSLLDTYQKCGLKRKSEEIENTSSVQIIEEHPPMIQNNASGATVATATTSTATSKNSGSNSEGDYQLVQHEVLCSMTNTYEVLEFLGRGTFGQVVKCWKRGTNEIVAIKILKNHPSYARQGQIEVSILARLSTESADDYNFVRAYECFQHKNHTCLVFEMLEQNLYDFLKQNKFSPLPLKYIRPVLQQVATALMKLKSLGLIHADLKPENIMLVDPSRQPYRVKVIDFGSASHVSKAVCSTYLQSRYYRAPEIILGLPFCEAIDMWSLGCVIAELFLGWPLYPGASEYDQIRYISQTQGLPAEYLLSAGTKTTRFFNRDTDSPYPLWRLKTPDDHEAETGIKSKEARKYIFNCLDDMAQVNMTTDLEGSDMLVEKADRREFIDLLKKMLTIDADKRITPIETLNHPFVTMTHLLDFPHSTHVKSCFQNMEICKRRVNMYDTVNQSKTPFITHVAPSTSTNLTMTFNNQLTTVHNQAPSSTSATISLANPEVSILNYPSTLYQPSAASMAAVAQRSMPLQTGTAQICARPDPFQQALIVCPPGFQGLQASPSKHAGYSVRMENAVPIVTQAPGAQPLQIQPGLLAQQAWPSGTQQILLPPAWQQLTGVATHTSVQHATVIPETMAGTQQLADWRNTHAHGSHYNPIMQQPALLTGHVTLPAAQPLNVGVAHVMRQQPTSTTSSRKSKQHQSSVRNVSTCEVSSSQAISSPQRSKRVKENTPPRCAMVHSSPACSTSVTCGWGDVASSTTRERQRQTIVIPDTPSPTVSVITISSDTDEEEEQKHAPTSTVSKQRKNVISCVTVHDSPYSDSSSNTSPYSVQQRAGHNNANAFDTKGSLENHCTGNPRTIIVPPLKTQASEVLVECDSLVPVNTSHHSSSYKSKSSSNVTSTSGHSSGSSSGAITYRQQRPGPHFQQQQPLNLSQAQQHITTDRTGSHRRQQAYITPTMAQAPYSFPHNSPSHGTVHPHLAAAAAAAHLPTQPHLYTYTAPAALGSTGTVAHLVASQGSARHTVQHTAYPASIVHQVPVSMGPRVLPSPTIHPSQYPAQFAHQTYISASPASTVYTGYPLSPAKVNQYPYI

[12] = molecular target: T12, panel of 374 wild-type kinases (Homo sapiens, UniProt P11802)
T12 construct: purchased Reaction Biology Corporation
T12 sequence (P11802 whole entry): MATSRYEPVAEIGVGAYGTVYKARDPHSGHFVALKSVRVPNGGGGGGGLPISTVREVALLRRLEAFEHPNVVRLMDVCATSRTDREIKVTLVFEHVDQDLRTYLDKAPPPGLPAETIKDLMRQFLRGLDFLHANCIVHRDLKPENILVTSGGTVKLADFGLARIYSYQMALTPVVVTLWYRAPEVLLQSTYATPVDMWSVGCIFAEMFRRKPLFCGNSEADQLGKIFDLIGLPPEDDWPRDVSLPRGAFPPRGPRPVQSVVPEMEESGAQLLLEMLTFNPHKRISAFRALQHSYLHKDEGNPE

[13] = molecular target: T13, panel of 374 wild-type kinases (Homo sapiens, UniProt Q9HAZ1); settings: read-out: % Enzyme Activity (relative to DMSO controls), CLK4
T13 construct: purchased Reaction Biology Corporation
T13 sequence (Q9HAZ1 whole entry): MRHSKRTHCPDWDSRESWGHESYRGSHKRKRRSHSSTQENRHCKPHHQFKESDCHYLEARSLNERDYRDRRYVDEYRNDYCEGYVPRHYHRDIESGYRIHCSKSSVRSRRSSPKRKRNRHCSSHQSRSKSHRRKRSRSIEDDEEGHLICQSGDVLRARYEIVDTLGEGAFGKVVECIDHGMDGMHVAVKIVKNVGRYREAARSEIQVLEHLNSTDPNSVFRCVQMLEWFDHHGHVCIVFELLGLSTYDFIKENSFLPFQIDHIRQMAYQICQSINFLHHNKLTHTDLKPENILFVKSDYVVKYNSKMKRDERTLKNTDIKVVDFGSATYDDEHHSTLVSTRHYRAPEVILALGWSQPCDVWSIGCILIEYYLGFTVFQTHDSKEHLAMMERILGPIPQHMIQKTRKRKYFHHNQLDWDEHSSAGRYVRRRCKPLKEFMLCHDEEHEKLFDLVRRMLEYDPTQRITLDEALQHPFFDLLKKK

[14] = molecular target: T14, panel of 374 wild-type kinases (Homo sapiens, UniProt P07948); settings: read-out: % Enzyme Activity (relative to DMSO controls), LYN
T14 construct: purchased Reaction Biology Corporation
T14 sequence (P07948 whole entry): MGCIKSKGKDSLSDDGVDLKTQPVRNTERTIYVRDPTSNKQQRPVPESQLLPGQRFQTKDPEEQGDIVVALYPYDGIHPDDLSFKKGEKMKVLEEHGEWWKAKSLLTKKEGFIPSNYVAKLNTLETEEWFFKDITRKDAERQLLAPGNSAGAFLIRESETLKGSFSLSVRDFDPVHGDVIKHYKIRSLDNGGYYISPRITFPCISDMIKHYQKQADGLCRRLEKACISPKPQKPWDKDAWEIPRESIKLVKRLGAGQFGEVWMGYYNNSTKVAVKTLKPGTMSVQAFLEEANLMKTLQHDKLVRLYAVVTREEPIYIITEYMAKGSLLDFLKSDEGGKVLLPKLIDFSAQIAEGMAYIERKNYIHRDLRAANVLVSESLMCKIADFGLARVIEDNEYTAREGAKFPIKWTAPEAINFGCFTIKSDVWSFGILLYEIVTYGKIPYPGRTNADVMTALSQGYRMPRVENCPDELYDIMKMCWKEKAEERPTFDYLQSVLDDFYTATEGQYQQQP

[15] = molecular target: T15, panel of 374 wild-type kinases (Homo sapiens, UniProt P11362); settings: read-out: % Enzyme Activity (relative to DMSO controls), FGFR1
T15 construct: purchased Reaction Biology Corporation
T15 sequence (P11362 22-822): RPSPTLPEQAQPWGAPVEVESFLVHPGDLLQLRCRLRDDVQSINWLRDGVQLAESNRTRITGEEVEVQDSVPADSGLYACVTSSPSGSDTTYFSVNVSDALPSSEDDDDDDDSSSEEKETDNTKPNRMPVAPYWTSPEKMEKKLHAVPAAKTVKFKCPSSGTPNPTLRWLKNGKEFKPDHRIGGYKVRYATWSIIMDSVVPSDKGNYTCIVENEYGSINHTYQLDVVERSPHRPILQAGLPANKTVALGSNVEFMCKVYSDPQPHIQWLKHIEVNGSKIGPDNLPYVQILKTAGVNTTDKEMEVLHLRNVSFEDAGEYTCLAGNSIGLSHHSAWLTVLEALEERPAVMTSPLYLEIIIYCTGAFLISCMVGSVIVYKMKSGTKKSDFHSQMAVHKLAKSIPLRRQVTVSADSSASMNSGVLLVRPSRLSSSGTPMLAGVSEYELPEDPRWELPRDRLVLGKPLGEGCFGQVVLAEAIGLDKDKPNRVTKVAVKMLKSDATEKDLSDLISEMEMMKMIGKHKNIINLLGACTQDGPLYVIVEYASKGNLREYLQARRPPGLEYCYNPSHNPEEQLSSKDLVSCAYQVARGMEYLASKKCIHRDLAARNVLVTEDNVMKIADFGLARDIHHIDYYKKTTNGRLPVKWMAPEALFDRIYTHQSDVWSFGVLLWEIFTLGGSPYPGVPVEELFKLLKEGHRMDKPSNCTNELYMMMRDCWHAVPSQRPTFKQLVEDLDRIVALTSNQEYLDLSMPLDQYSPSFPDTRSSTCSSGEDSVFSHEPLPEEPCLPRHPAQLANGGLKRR

[16] = read-out: % Enzyme Activity (relative to DMSO controls), CDK4/cyclin D1
[17] = read-out: % Enzyme Activity (relative to DMSO controls), CDK4/cyclin D3

| Compound | remaining activity at 5 µM [1] [%] | remaining activity at 5 µM [2] [%] | remaining activity at 5 µM [3] [%] | remaining activity at 5 µM [4] [%] | remaining activity at 5 µM [5] [%] | remaining activity at 5 µM [6] [%] | remaining activity at 5 µM [7] [%] | remaining activity at 5 µM [8] [%] | remaining activity at 5 µM [9] [%] | remaining activity at 5 µM [10] [%] | remaining activity at 5 µM [11] [%] | remaining activity at 5 µM [12, 16] [%] | remaining activity at 5 µM [12, 17] [%] | remaining activity at 5 µM [13] [%] | remaining activity at 5 µM [14] [%] | remaining activity at 5 µM [15] [%] | also measured |
| --- | --- | --- | --- | --- | --- | --- | --- | --- | --- | --- | --- | --- | --- | --- | --- | --- | --- |
| O=C(Nc1cnn(-c2csc(C(=O)NC3COC3)c2)c1)Nc1ccccc1Cl [Compound 17, 4-(4-(3-(2-chlorophenyl)ureido)-1H-pyrazol-1-yl)-N-(oxetan-3-yl)thiophene-2-carboxamide] | 99.3 | 110 | 105 | 98.8 | 109 | 120 | 130 | 99.7 | 101 | 92.1 | 102 | 92.2 | 98.2 | 66 | 96.8 | 98.5 |  |
| O=C(Nc1cnn(-c2csc(C(=O)NC3COC3)c2)c1)Nc1c(F)cccc1Cl [Compound 25, 4-(4-(3-(2-chloro-6-fluorophenyl)ureido)-1H-pyrazol-1-yl)-N-(oxetan-3-yl)thiophene-2-carboxamide] | 99 | 85.9 | 98.9 | 97.6 | 81.1 | 93.2 | 93.7 | 89.4 | 99 | 97.7 | 92.6 | 90.3 | 79.4 | 93.2 | 95.3 | 93.2 |  |
| Cc1sc(C(=O)NC2COC2)cc1-n1cc(NC(=O)Nc2c(F)cccc2Cl)cn1 [Compound 27, 4-(4-(3-(2-chloro-6-fluorophenyl)ureido)-1H-pyrazol-1-yl)-5-methyl-N-(oxetan-3-yl)thiophene-2-carboxamide] |  |  |  |  |  |  |  |  |  |  |  |  |  |  |  |  | remaining activity at 10 µM ([1]; 10 uM): 104%; remaining activity at 10 µM ([2]; 10 uM): 90.8%; remaining activity at 10 µM ([3]; 10 uM): 103%; remaining activity at 10 µM ([4]; 10 uM): 120%; remaining activity at 10 µM ([5]; 10 uM): 105%; remaining activity at 10 µM ([6]; 10 uM): 93.9%; remaining activity at 10 µM ([7]; 10 uM): 121%; remaining activity at 10 µM ([8]; 10 uM): 98.5%; remaining activity at 10 µM ([9]; 10 uM): 92.7%; remaining activity at 10 µM ([10]; 10 uM): 92.1%; remaining activity at 10 µM ([11]; 10 uM): 103%; remaining activity at 10 µM [12, 16]: 78%; remaining activity at 10 µM [12, 17]: 96.5%; remaining activity at 10 µM ([13]; 10 uM): 102%; remaining activity at 10 µM ([14]; 10 uM): 106%; remaining activity at 10 µM ([15]; 10 uM): 114% |
